According to patent US9730944B2, “Antiviral activity of novel bicyclic heterocycles” (priority 2010, dated 2017):
Converted amounts (≈) assume the structure as drawn.

How the values were obtained:
[1] = Cytostatic/cytotoxic effect in Hela Rh cells (rhinovirus methodology, MTS); conditions: human, CC50, Hela Rh cells
hRV-39 = assay: Rhinovirus type 39 antiviral assay in Hela Rh cells, MTS readout; type: cell-based, Human rhinovirus; conditions: Human rhinovirus sp., HRV39, HeLa Rh, Hela Rh cells; read-out: hRV-39 EC50
hRV-42 = assay: Rhinovirus type 42 antiviral assay in Hela Rh cells, MTS readout; type: cell-based, Human rhinovirus; conditions: Human rhinovirus sp., HRV42, HeLa Rh, Hela Rh cells; read-out: hRV-42 EC50
hRV-9 = assay: Rhinovirus type 9 antiviral assay in Hela Rh cells, MTS readout; type: cell-based, Human rhinovirus; conditions: Human rhinovirus sp., HRV9, HeLa Rh, Hela Rh cells; read-out: hRV-9 EC50
hRV-14 = assay: Rhinovirus type 14 antiviral assay in Hela Rh cells, MTS readout; type: cell-based, Human rhinovirus; conditions: Rhinovirus B, HRV14, HeLa Rh, Hela Rh cells; read-out: hRV-14 EC50
hRV-2 = assay: Rhinovirus type 2 antiviral assay in Hela Rh cells, MTS readout; type: cell-based, Human rhinovirus; conditions: Rhinovirus A, HRV2, HeLa Rh, Hela Rh cells; read-out: hRV-2 EC50
hRV-15 = assay: Rhinovirus type 15 antiviral assay in Hela Rh cells, MTS readout; type: cell-based, Human rhinovirus; conditions: Human rhinovirus sp., HRV15, HeLa Rh, Hela Rh cells; read-out: hRV-15 EC50
hRV-41 = assay: Rhinovirus type 41 antiviral assay in Hela Rh cells, MTS readout; type: cell-based, Human rhinovirus; conditions: Human rhinovirus sp., HRV41, HeLa Rh, Hela Rh cells; read-out: hRV-41 EC50
hRV-72 = assay: Rhinovirus type 72 antiviral assay in Hela Rh cells, MTS readout; type: cell-based, Human rhinovirus; conditions: Human rhinovirus sp., HRV72, HeLa Rh, Hela Rh cells; read-out: hRV-72 EC50
hRV-63 = assay: Rhinovirus type 63 antiviral assay in Hela Rh cells, MTS readout; type: cell-based, Human rhinovirus; conditions: Human rhinovirus sp., HRV63, HeLa Rh, Hela Rh cells; read-out: hRV-63 EC50
hRV-70 = assay: Rhinovirus type 70 antiviral assay in Hela Rh cells, MTS readout; type: cell-based, Human rhinovirus; conditions: Human rhinovirus sp., HRV70, HeLa Rh, Hela Rh cells; read-out: hRV-70 EC50
hRV-29 = assay: Rhinovirus type 29 antiviral assay in Hela Rh cells, MTS readout; type: cell-based; conditions: Human rhinovirus sp., HRV29, HeLa Rh, Hela Rh cells; read-out: hRV-29 EC50
hRV-85 = assay: Rhinovirus type 85 antiviral assay in Hela Rh cells, MTS readout; type: cell-based, Human rhinovirus; conditions: Human rhinovirus sp., HRV85, HeLa Rh, Hela Rh cells; read-out: hRV-85 EC50
hRV-45 = assay: Rhinovirus type 45 antiviral assay in Hela Rh cells, MTS readout; type: cell-based, Human rhinovirus; conditions: Human rhinovirus sp., HRV45, HeLa Rh, Hela Rh cells; read-out: hRV-45 EC50
hRV-86 = assay: Rhinovirus type 86 antiviral assay in Hela Rh cells, MTS readout; type: cell-based, Human rhinovirus; conditions: Human rhinovirus sp., HRV86, HeLa Rh, Hela Rh cells; read-out: hRV-86 EC50

SMILES	CC50 [1]	EC50 (hRV-39)	EC50 (hRV-42)	EC50 (hRV-9)	EC50 (hRV-14)	EC50 (hRV-2)	EC50 (hRV-15)	EC50 (hRV-41)	EC50 (hRV-72)	EC50 (hRV-63)	EC50 (hRV-70)	EC50 (hRV-29)	EC50 (hRV-85)	EC50 (hRV-45)	EC50 (hRV-86)
COc1ccc(OCC(=O)N2CCN(c3nc(N)nc4sc(-c5ccc(C)cc5)nc34)CC2)cc1 [Example 294, 1-(4-(5-amino-2-p-tolylthiazolo[5,4-d]pyrimidin-7-yl)piperazin-1-yl)-2-(4-methoxyphenoxy)ethanone]	> 50 µg/mL	< 0.02 µg/mL	0.63 µg/mL (≈ 1.28 µM)	0.02 µg/mL (≈ 0.0408 µM)	29.1 µg/mL (≈ 59.4 µM)	< 0.02 µg/mL	1.82 µg/mL (≈ 3.71 µM)	0.43 µg/mL (≈ 0.876 µM)	20.6 µg/mL (≈ 41.9 µM)	< 0.39 µg/mL	5.26 µg/mL (≈ 10.7 µM)	< 0.02 µg/mL	< 0.39 µg/mL	< 0.39 µg/mL	
Cc1ccc(CCc2nc3c(N4CCN(C(=O)COc5ccc(Cl)cc5)CC4)nc(N)nc3s2)cc1 [Example 260, 1-(4-(5-amino-2-(4-methylphenethyl)thiazolo[5,4-d]pyrimidin-7-yl)piperazin-1-yl)-2-(4-chlorophenoxy)ethanone]	> 50 µg/mL	13 µg/mL (≈ 24.8 µM)	> 50 µg/mL	> 50 µg/mL	> 50 µg/mL		> 50 µg/mL	> 50 µg/mL	> 50 µg/mL	27.9 µg/mL (≈ 53.3 µM)	> 50 µg/mL	> 50 µg/mL	1.35 µg/mL (≈ 2.58 µM)	2.46 µg/mL (≈ 4.7 µM)	> 50 µg/mL
COc1ccc(OCC(=O)N2CCN(c3nc(N)nc4sc(-c5ccc(F)cc5)nc34)CC2)cc1 [Example 234, 1-(4-(5-amino-2-(4-fluorophenyl)thiazolo[5,4-d]pyrimidin-7-yl)piperazin-1-yl)-2-(4-methoxyphenoxy)ethanone]	> 50 µg/mL	0.08 µg/mL (≈ 0.162 µM)	30.1 µg/mL (≈ 60.9 µM)		> 50 µg/mL	0.06 µg/mL (≈ 0.121 µM)	29.3 µg/mL (≈ 59.2 µM)	25.5 µg/mL (≈ 51.6 µM)	> 50 µg/mL	1.32 µg/mL (≈ 2.67 µM)	> 50 µg/mL	0.04 µg/mL (≈ 0.0809 µM)	< 0.39 µg/mL		> 50 µg/mL
COc1ccc(OCC(=O)N2CCN(c3nc(N)nc4sc(Cc5ccc(F)cc5)nc34)CC2)cc1 [Example 230, 1-(4-(5-amino-2-(4-fluorobenzyl)thiazolo[5,4-d]pyrimidin-7-yl)piperazin-1-yl)-2-(4-methoxyphenoxy)ethanone]	> 50 µg/mL	0.04 µg/mL (≈ 0.0787 µM)	< 0.39 µg/mL	0.09 µg/mL (≈ 0.177 µM)	0.39 µg/mL (≈ 0.767 µM)		0.38 µg/mL (≈ 0.747 µM)	0.58 µg/mL (≈ 1.14 µM)	8.55 µg/mL (≈ 16.8 µM)	0.54 µg/mL (≈ 1.06 µM)	2.37 µg/mL (≈ 4.66 µM)	0.04 µg/mL (≈ 0.0787 µM)	0.61 µg/mL (≈ 1.2 µM)	1.13 µg/mL (≈ 2.22 µM)	2.36 µg/mL (≈ 4.64 µM)
COc1ccc(OCC(=O)N2CCN(c3nc(N)nc4sc(CCc5ccc(C)cc5)nc34)CC2)cc1 [Example 259, 1-(4-(5-amino-2-(4-methylphenethyl)thiazolo[5,4-d]pyrimidin-7-yl)piperazin-1-yl)-2-(4-methoxyphenoxy)ethanone]	> 50 µg/mL	0.32 µg/mL (≈ 0.617 µM)	> 50 µg/mL	0.35 µg/mL (≈ 0.675 µM)	> 50 µg/mL	0.48 µg/mL (≈ 0.925 µM)	> 50 µg/mL	> 50 µg/mL	> 50 µg/mL	18.3 µg/mL (≈ 35.3 µM)	> 50 µg/mL	0.41 µg/mL (≈ 0.791 µM)	1.52 µg/mL (≈ 2.93 µM)	2.56 µg/mL (≈ 4.94 µM)	
CCCCCc1nc2c(N3CCN(C(=O)COc4ccc(Cl)cc4)CC3)nc(N)nc2s1 [Example 297, 1-(4-(5-amino-2-pentylthiazolo[5,4-d]pyrimidin-7-yl)piperazin-1-yl)-2-(4-chlorophenoxy)ethanone]	> 50 µg/mL	0.08 µg/mL (≈ 0.168 µM)	4.45 µg/mL (≈ 9.37 µM)	0.14 µg/mL (≈ 0.295 µM)	0.4 µg/mL (≈ 0.842 µM)		0.38 µg/mL (≈ 0.8 µM)	1.06 µg/mL (≈ 2.23 µM)	2.46 µg/mL (≈ 5.18 µM)	0.53 µg/mL (≈ 1.12 µM)	4.31 µg/mL (≈ 9.07 µM)	0.13 µg/mL (≈ 0.274 µM)	1.01 µg/mL (≈ 2.13 µM)	2.29 µg/mL (≈ 4.82 µM)	2.42 µg/mL (≈ 5.09 µM)
Nc1nc(N2CCN(C(=O)COc3cccc(Cl)c3)CC2)c2nc(CCc3ccc(F)cc3)sc2n1 [Example 228, 1-(4-(5-amino-2-(4-fluorophenethyl)thiazolo[5,4-d]pyrimidin-7-yl)piperazin-1-yl)-2-(3-chlorophenoxy)ethanone]	> 50 µg/mL	1.28 µg/mL (≈ 2.43 µM)		1.16 µg/mL (≈ 2.2 µM)	9.21 µg/mL (≈ 17.5 µM)	1.27 µg/mL (≈ 2.41 µM)	43.9 µg/mL (≈ 83.2 µM)	> 50 µg/mL	> 50 µg/mL	13.8 µg/mL (≈ 26.1 µM)	10 µg/mL (≈ 19.1 µM)	1.38 µg/mL (≈ 2.62 µM)	4.14 µg/mL (≈ 7.86 µM)		4.86 µg/mL (≈ 9.22 µM)
